# Experimental data as given in patent publication US11512053B2, “Arginine methyltransferase inhibitors and uses thereof” (priority 2013, dated 2022).
# Read-outs that look alike come from different tables or passages of the source.
# Tests used:
# [1] = target: full-length human PRMT1 isoform 1 (GST-tagged) (Homo sapiens, UniProt Q99873); test: PRMT1 Biochemical Assay (3H-SAM Flashplate, peptide substrate)
# How it was run: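 Tritiated methyl transfer from 3H-SAM onto biotinylated peptide, captured on streptavidin Flashplates and counted. Baculovirus-expressed GST-PRMT1 and compound were preincubated 30 min at room temperature in Bicine buffer pH 7.6. Cold SAM at 300 uM final ended the reaction.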
# [2] = system: mono-methyl arginine in RKO cells; test: RKO Methylation Assay, In Cell Western (ICW) for detection of mono-methyl arginine and DNA content; format: cell-based; settings: for EC30: Homo sapiens, RKO, 72 h
# How it was run: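 RKO cells were treated with compound for 72 hours at 37 °C, methanol-fixed and stained overnight at 4 °C with anti-mono-methyl arginine (1:200), with DRAQ5 for DNA. Odyssey 800/700 nm intensity ratio was normalized to DMSO and 20 μM reference-compound controls. EC30 from triplicate nine-point curves.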
# [3] = single experiment or average of multiple experiments
# [4] = RKO cells, 72 hours incubation, mono-methyl arginine signal normalised to DNA content, single experiment or average of multiple experiments, read-out: In Cell Western EC30
# [5] = RKO cells, 72 hours compound incubation, mono-methyl arginine signal normalised to DNA content (DRAQ5), percent activation vs 20 μM reference compound
# [6] = read-out: In Cell Western EC30, RKO cells, 72 hours compound incubation, mono-methyl arginine signal normalised to DNA content (DRAQ5), percent activation vs 20 μM reference compound
# [7] = read-out: In Cell Western EC30, RKO cells, 72 hours incubation, mono-methyl arginine signal normalised to DNA content, single experiment or average of multiple experiments
# Sequence of full-length human PRMT1 isoform 1 (GST-tagged) (Q99873 with tags, fused parts or gaps): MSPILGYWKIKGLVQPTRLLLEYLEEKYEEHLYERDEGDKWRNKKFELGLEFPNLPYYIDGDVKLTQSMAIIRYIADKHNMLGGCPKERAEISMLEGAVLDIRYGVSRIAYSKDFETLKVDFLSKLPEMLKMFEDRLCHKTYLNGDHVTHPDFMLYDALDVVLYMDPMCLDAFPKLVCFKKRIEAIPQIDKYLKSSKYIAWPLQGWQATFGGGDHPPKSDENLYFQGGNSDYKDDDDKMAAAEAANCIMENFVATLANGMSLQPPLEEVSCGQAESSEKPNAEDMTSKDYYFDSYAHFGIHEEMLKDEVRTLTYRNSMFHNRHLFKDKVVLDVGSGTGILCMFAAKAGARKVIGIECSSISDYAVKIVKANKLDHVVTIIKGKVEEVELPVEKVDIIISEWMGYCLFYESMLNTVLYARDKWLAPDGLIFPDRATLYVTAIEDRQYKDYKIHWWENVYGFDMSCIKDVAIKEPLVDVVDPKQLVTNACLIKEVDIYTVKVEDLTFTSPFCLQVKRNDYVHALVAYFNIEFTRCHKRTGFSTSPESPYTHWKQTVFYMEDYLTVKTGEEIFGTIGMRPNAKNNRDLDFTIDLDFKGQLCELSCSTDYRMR
Structure (SMILES),"IC50 [1, 3]","EC30 [2, 4]","In Cell Western EC30 [2, 5]",further results
CNCCN(C)Cc1c[nH]nc1C#Cc1ccc(C(C)(C)C)cc1 [Compound 2],0.01 µM,,,
CNCCN(C)Cc1c[nH]nc1C#Cc1ccc(F)cc1 [Compound 4],0.02 µM,,,
Cc1ccc(/C=C/c2n[nH]cc2CN(C)CCN)cc1 [Compound 8],0.02 µM,,,
CN(CCN)Cc1c[nH]nc1C1=CCOCC1 [Compound 10],0.39 µM,> 20 µM,C (“C” indicates an EC30 > 12.01 μM),
COc1cc(/C=C/c2n[nH]cc2CN(C)CCN)cc(OC)c1 [Compound 11],0.01 µM,,,
CN(CCN)Cc1c[nH]nc1C1CC1 [Compound 12],1.58 µM,,,
COC/C=C/c1n[nH]cc1CN(C)CCN [Compound 19],0.19 µM,,,
CC(C)c1n[nH]cc1CN(C)CCN [Compound 21],1.49 µM,> 20 µM,C (“C” indicates an EC30 > 12.01 μM),
CN(CCN)Cc1c[nH]nc1/C=C/Cc1ccccc1 [Compound 24],0.02 µM,2.4 µM,A (“A” indicates an EC30 ≤ 3.00 μM),
CN(CCN)Cc1c[nH]nc1C1CCC1 [Compound 26],,> 20 µM,C (“C” indicates an EC30 > 12.01 μM),
CN(CCN)Cc1c[nH]nc1C(C)(C)C [Compound 27],,> 20 µM,C (“C” indicates an EC30 > 12.01 μM),
"CC(C)Cc1n[nH]cc1CN(C)CCN [Compound 28, N^1-((3-iso-butyl-1H-pyrazol-4-yl)methyl)-N^1-methylethane-1,2-diamine]",0.18 µM,11.1 µM,,"EC30 ([2]; RKO cells, 72 hours compound incubation, mono-methyl arginine signal normalised to DNA content (DRAQ5), percent activation vs 20 μM reference compound, read-out: In Cell Western EC30): 3.01 to 12 µM"
CCCc1n[nH]cc1CN(C)CCN [Compound 29],,> 20 µM,C (“C” indicates an EC30 > 12.01 μM),
Cc1n[nH]cc1CN(C)CCN [Compound 30],,> 20 µM,C (“C” indicates an EC30 > 12.01 μM),
CC1CCC(c2c[nH]nc2CN(C)CCN)CC1 (stereo not drawn) [Compound 35],,0.73 µM,A (“A” indicates an EC30 ≤ 3.00 μM),
CN(CCN)Cc1n[nH]cc1C1CCC(C)(C)CC1 [Compound 36],,0.63 µM,A (“A” indicates an EC30 ≤ 3.00 μM),
"CN(CCN)Cc1c[nH]nc1C1CCC(C)(C)CC1 [Compound 38, N^1-((3-(4,4-dimethylcyclohexyl)-1H-pyrazol-4-yl)methyl)-N^1-methylethane-1,2-diamine]",,0.13 µM,A (“A” indicates an EC30 ≤ 3.00 μM),
"CNCCN(C)Cc1c[nH]nc1C1CCN(CC(C)C)CC1 [Compound 39, N^1-((3-(1-isobutylpiperidin-4-yl)-1H-pyrazol-4-yl)methyl)-N^1,N^2-dimethylethane-1,2-diamine]",,0.5 µM,A (“A” indicates an EC30 ≤ 3.00 μM),
CNCCN(C)Cc1c[nH]nc1C1CCNCC1 [Compound 42],,> 20 µM,C (“C” indicates an EC30 > 12.01 μM),
"CN(CCN)Cc1n[nH]cc1C1CCC(N2CCOCC2)CC1 (stereo not drawn) [Compound 44, N^1-methyl-N^1-((4-(4-morpholinocyclohexyl)-1H-pyrazol-3-yl)methyl)ethane-1,2-diamine]",,4.57 µM,B (“B” indicates an EC30 of 3.01-12.00 μM),
"CNCCN(C)Cc1c[nH]nc1[C@H]1CC[C@@]2(CC1)CC(C)(C)CO2 [Compound 133, Methyl[2-(methylamino)ethyl]([3-[(5s,8s)-3,3-dimethyl-1-oxaspiro[4.5]decan-8-yl]-1H-pyrazol-4-yl]methyl)amine]",,,,"EC30 [2, 6]: < 3 µM; EC30 [2, 7]: 0.0438 µM"
"CNCCN(C)Cc1c[nH]nc1[C@H]1CC[C@]2(CC1)CC(C)(C)CO2 [Compound 134, methyl[2-(methylamino)ethyl]([3-[(5r,8r)-3,3-dimethyl-1-oxaspiro[4.5]decan-8-yl]-1H-pyrazol-4-yl]methyl)amine]",,,,"EC30 [2, 6]: < 3 µM; EC30 [2, 7]: 0.0332 µM"

# Now from value to compound, other results behind:
"IC50 [1, 3]",Structure (SMILES),"EC30 [2, 4]","In Cell Western EC30 [2, 5]",further results
0.01 µM,CNCCN(C)Cc1c[nH]nc1C#Cc1cccc(OC)c1 [Compound 1],,,
0.01 µM,CNCCN(C)Cc1c[nH]nc1/C=C/c1ccc(-c2ccccc2)cc1 [Compound 5],,,
0.04 µM,CNCCN(C)Cc1c[nH]nc1/C=C/c1ccc(C(F)(F)F)cc1 [Compound 6],,,
0.01 µM,CNCCN(C)Cc1c[nH]nc1/C=C/c1ccc(OC)cc1 [Compound 7],,,
0.01 µM,CN(CCN)Cc1c[nH]nc1/C=C/c1ccc(F)cc1F [Compound 13],,,
0.09 µM,CN(CCN)Cc1c[nH]nc1/C=C/c1cc(C(F)(F)F)cc(C(F)(F)F)c1 [Compound 14],,,
0.05 µM,CN(CCN)Cc1c[nH]nc1/C=C/c1cc(F)cc(F)c1 [Compound 15],,,
0.02 µM,CN(CCN)Cc1c[nH]nc1/C=C/c1cccc(C(F)(F)F)c1 [Compound 16],,,
0.01 µM,COc1cccc(/C=C/c2n[nH]cc2CN(C)CCN)c1 [Compound 17],,,
0.02 µM,CN(CCN)Cc1c[nH]nc1/C=C/c1cccc(F)c1 [Compound 20],,,
0.01 µM,CN(CCN)Cc1c[nH]nc1C1CCCCC1 [Compound 22],1.24 µM,A (“A” indicates an EC30 ≤ 3.00 μM),
0.01 µM,"CN(CCN)Cc1c[nH]nc1CCc1ccc(F)cc1 [Compound 23, N^1-((3-(4-fluorophenethyl)-1H-pyrazol-4-yl)methyl)-N^1-methylethane-1,2-diamine]",1.61 µM,A (“A” indicates an EC30 ≤ 3.00 μM),
0.25 µM,CN(CCN)Cc1c[nH]nc1C1=CCCC1 [Compound 25],11.8 µM,B (“B” indicates an EC30 of 3.01-12.00 μM),
0.11 µM,CN(CCN)Cc1c[nH]nc1C1CCCC1 [Compound 31],> 20 µM,C (“C” indicates an EC30 > 12.01 μM),
0.02 µM,CNCCN(C)Cc1c[nH]nc1C1CCN(C(=O)Cc2ccccc2)CC1 [Compound 32],2.35 µM,A (“A” indicates an EC30 ≤ 3.00 μM),
0.0313 µM,CNCCN(C)Cc1c[nH]nc1C1CCC(C)(C)C(C(=O)NCCCOC)C1 (stereo not drawn) [Compound 93],,,IC50 [1]: < 0.1 µM
0.0686 µM,CNCCN(C)Cc1c[nH]nc1[C@H]1CCC(C)(C)[C@@H](C(=O)NCCOC)C1 [Compound 268],,,IC50 [1]: < 0.1 µM
0.0513 µM,CNCCN(C)Cc1c[nH]nc1[C@@H]1CCC(C)(C)[C@@H](C(=O)NCCOC)C1 [Compound 269],,,IC50 [1]: < 0.1 µM
0.0625 µM,CNCCN(C)Cc1c[nH]nc1[C@H]1CCC(C)(C)[C@@H](C(=O)NCCCOC)C1 [Compound 270],,,IC50 [1]: < 0.1 µM
0.0371 µM,"CNCCN(C)Cc1c[nH]nc1[C@@H]1CCC(C)(C)[C@@H](C(=O)NCCCOC)C1 [Compound 271, (1S,5R)—N-(3-methoxypropyl)-2,2-dimethyl-5-[4-({methyl[2-(methylamino)ethyl]amino}methyl)-1H-pyrazol-3-yl]cyclohexane-1-carboxamide]",,,IC50 [1]: < 0.1 µM
0.0124 µM,CNCCN(C)Cc1c[nH]nc1C1CCC(C)(C)[C@H](OCCCOC)C1 (stereo partly drawn) [Compound 272],,,IC50 [1]: < 0.1 µM
0.0114 µM,"CNCCN(C)Cc1c[nH]nc1C1CCC(C)(C)[C@H](OCC2CCOCC2)C1 (stereo partly drawn) [Compound 273, ({3-[(3R)-4,4-dimethyl-3-(oxan-4-ylmethoxy)cyclohexyl]-1H-pyrazol-4-yl}methyl)(methyl)[2-(methylamino)ethyl]amine]",,,IC50 [1]: < 0.1 µM
